This is an account of results in patent US7514254B2, “Plant-derived alkaline alpha-galactosidase” (The State of Israel, Ministry of Agriculture & Rural …, priority 1998, dated 2009).

SMILES strings stand for the structures.

The Km is the concentration of substrate that gives half-maximal velocity.

Experiment [1] has as its system melon (Cucumis melo) fruit acid form alpha-galactosidase. As to the kind of experiment: Substrate kinetics (Lineweaver-Burk) of acid alpha-galactosidase. It counts as biochemical, muskmelon (Cucumis melo L. cv C-8). The protocol:
For routine analysis and monitoring the activity in the purification steps, alpha-galactosidase was assayed as described by Smart and Pharr (“Characterization of alpha-galactosidase from cucumber leaves”, Plant Physiology, 66:731-734, 1980), using p-nitrophenyl alpha-galactoside (pNPG) as substrate. […] The reaction was terminated after 10 min by adding 1 ml of 5% (w/v) Na2CO3 and activity expressed as nmol nitrophenol per min as measured at 410 nm. […] The assay was started by adding 50 μl enzyme preparation at 35 C and terminated after 10 to 20 min by 2 min boiling. […] For the partial purification of the acid form of alpha-galactosidase the fractions active at pH 5.5 were pooled and concentrated by reverse dialysis against solid sucrose. […] The active fractions were then desalted by dialysis against buffer A for 12 hours with two changes of the buffer. This enzyme fraction was used for the characterization of the acidic form of alpha-galactosidase. […] The substrate specificity of the alpha-galactosidases was tested with pNPG, stachyose, raffinose, melibiose or guar gum (Sigma).

Experiment [2] has as its system Cucurbita pepo leaf alkaline alpha-galactosidase ("LIV" enzyme). To be noted: Gaudreault and Webb; alkaline form; cited from earlier work.
Experiment [3] relates to melon (Cucumis melo) fruit acid form alpha-galactosidase. Description: Inhibition of acid alpha-galactosidase by alternative substrate (galactose release). It is filed as biochemical, muskmelon (Cucumis melo L. cv C-8). To be noted: 80 mM stachyose added to 10 mM raffinose. The method, then: For routine analysis and monitoring the activity in the purification steps, alpha-galactosidase was assayed as described by Smart and Pharr (“Characterization of alpha-galactosidase from cucumber leaves”, Plant Physiology, 66:731-734, 1980), using p-nitrophenyl alpha-galactoside (pNPG) as substrate. […] The reaction was terminated after 10 min by adding 1 ml of 5% (w/v) Na2CO3 and activity expressed as nmol nitrophenol per min as measured at 410 nm. […] The substrate specificity of the alpha-galactosidases was tested with pNPG, stachyose, raffinose, melibiose or guar gum (Sigma).

`OC[C@H]1O[C@H](OC[C@H]2O[C@H](OC[C@H]3O[C@H](O[C@]4(CO)O[C@H](CO)[C@@H](O)[C@@H]4O)[C@H](O)[C@@H](O)[C@@H]3O)[C@H](O)[C@@H](O)[C@H]2O)[C@H](O)[C@@H](O)[C@H]1O` [Stachyose, O-alpha-D-galactopyranosyl-(1-6)-O-alpha-D-galactopyranosyl-(1-6)-O-alpha-D-glucopyranosyl-(1-2)-beta-D-fructofuranoside]: the Vmax/Km ratio in experiment [1] turned out to be 0.02. The Km in experiment [1] (Lineweaver-Burk) is 10.5 mM; in experiment [2], 4.5 mM. The Vmax in experiment [1] (Lineweaver-Burk) was 0.23 μmol mg^−1 protein min^−1. In addition, the “inhibition by excess stachyose (free galactose release)” value in experiment [3] turned out to be 45%.
